From US20150296765A1, “DEVICE FOR SPRAYING POWDERY CHEMICAL AGENT AND PROCESS FOR SPRAYING POWDERY CHEMICAL AGENT” (EARTH CHEMICAL CO., LTD., priority 2012, published 2015) come the findings set out here.

Data set [1] concerns Smoky-brown cockroaches. Conditions: for insect pest-controlling effect (in words): summary of Tables 5 and 6. The source says:
(§1) Contents of the test are as follows.
(§2) 1. A test plot having a floor area of about 9 m^2 (270 cm in length×340 cm in width×15 cm in height) as shown in FIG. 5 was set in the interior of a room of 470 cm in length×540 cm in width. The powdery chemical agent spraying device 1 in which the cylindrical body 23 is connected directly with a pump P is placed in the center of a test plot floor face 100; corrugated boxes (A), (B), and (C) each imitating a gap between a kitchen sink and a refrigerator are arranged near one side of the test plot floor face 100 (lower portion in FIG. 5); and a bait 101 and water 103 are arranged near the other side of the test plot floor face 100 (upper portion in FIG. 5). 2. Smoky-brown cockroaches are released on the test plot floor face 100 and habituated in the corrugated boxes (A), (B), and (C), and thereafter, the powdery chemical agent 30 is sprayed from the powdery chemical agent spraying device 1 in which a discharge port of the pump P set up at a pressure of 100 kPa is connected directly with the cylindrical body 23. (Number of test insects: 49 females and 48 males for dinotefura and 50 females and 49 males for d.d-T-cyphenothrin) 3. […] 4. A knockdown (KD) rate and a mortality rate at every passage of a time based on the count number are calculated.
Device in which the discharge port of the pump (rolling pump, manufactured by Okenseiko Co., Ltd.; two pumps of Model Nos. P30C02R8516 and M42C02R8516 coupled with each other) P is connected directly with the cylindrical body 23 (In order to confirm a breaking pressure of each of the sealing films 25 and 27, a pressure gauge G is placed therebetween.)
Cylindrical body 23: The same as the cylindrical body 23 used in the measuring test of falling amount of chemical agent on floor face of Example 1.
Sealing films 25 and 27: The same as the sealing films 25 and 27 used in the measuring test of falling amount of chemical agent on floor face of Example 1.
(§3) Corrugated boxes (A) and (B): Two holes (2 cm×2 cm) through which the cockroach can come and go are opened in front of a corrugated box of 50 cm in length×50 cm in width×25 cm in height.
(§4) Corrugated box (C): The front and the rear of a corrugated box of 50 cm in length×50 cm in width×3 cm in height are fully opened.

Data set [2] concerns Smoky-brown cockroaches.
Text: as §1
as §2, with “FIG. 4” for “FIG. 5”, “1” for “1 in which the cylindrical body 23 is connected directly with a pump P”, “FIG. 4);” for “FIG. 5);”, “FIG. 4).” for “FIG. 5).”, “2. 28 females and 29 males of smoky-brown” for “2. Smoky-brown”, “device 1. […]” for “device 1 in which a discharge port of the pump P set up at a pressure of 100 kPa is connected directly with the cylindrical body 23. (Number of test insects: 49 females and 48 males for dinotefura and 50 females and 49 males for d.d-T-cyphenothrin)”
Container body 11: PET bottle having a capacity of 280 mL
Cylindrical body 23: Acrylic pipe having an inside diameter of 7 mm and a length of 50 mm
Sealing film 25: Parafilm (trade name: […] M, 4 inch×125 feet)
Sealing film 27: Parafilm (trade name: […] M, 4 inch×125 feet)
The Parafilm was wound around each end part of the cylindrical body 23 to prepare the sealing films 25 and 27, respectively.
The Parafilm was wound without being stretched and adjusted such that a pressure at the time of breaking of each of the sealing films 25 and 27 was 100 kPa.
Sodium bicarbonate 41: 3.8 g
as §3, §4

Each structure is given as a SMILES string. Like-named read-outs stand apart in the source and are kept apart here.

As to `CC(C)=CC1C(C(=O)OC(C#N)c2cccc(Oc3ccccc3)c2)C1(C)C` (stereo not drawn) [d.d-T-cyphenothrin], the “insect pest-controlling effect (in words)” value in the data set with Smoky-brown cockroaches [1] was “a high insect pest-exterminating effect could be obtained”.

`CN/C(=N/CC1CCOC1)N[N+](=O)[O-]` (stereo not drawn) [Chemical agent B, dinotefuran]: the KD and mortality with Smoky-brown cockroaches [1] (passage of time 2 hr) worked out at 3%; with Smoky-brown cockroaches [1] (passage of time 14.5 hr), 59%; in the data set on Smoky-brown cockroaches [1] (passage of time 16 hr) it was 71%; in the data set with Smoky-brown cockroaches [1] (passage of time 23 hr), 82%; with Smoky-brown cockroaches [1] (passage of time 43 hr), 96%; in the data set with Smoky-brown cockroaches [1] (passage of time 48 hr), 96%. Also, the KD and mortality in the data set with Smoky-brown cockroaches [1] (passage of time […]) came to 2%; in the data set with Smoky-brown cockroaches [2] (passage of time 3 hr), 2%; with Smoky-brown cockroaches [2] (passage of time 6 hr), 9%; with Smoky-brown cockroaches [2] (passage of time 18 hr) it was 40%; with Smoky-brown cockroaches [2] (passage of time 24 hr), 88%; with Smoky-brown cockroaches [2] (passage of time 32 hr) it was 95%. Besides, the KD and mortality with Smoky-brown cockroaches [2] (passage of time 48 hr) is listed as 96%. For the same compound, the KD was 43% with Smoky-brown cockroaches [1] (passage of time 14.5 hr); 18% in the data set on Smoky-brown cockroaches [1] (passage of time 43 hr); 15% in the data set on Smoky-brown cockroaches [1] (passage of time 48 hr); 25% in the data set on Smoky-brown cockroaches [2] (passage of time 18 hr); 9% with Smoky-brown cockroaches [2] (passage of time 32 hr); 7% in the data set with Smoky-brown cockroaches [2] (passage of time 48 hr). Moreover, the “insect pest-controlling effect (in words)” value with Smoky-brown cockroaches [1] is “a high effectiveness is obtained”.
